Reference: patent US9211310B2, “Use of a Chinese medicine composition in preparing medicaments for treating secondary prevention of myocardial infarction” (TASLY PHARMACEUTICAL GROUP CO., LTD, priority 2010, dated 2015)

System: patients after acute myocardial infarction
Assay: Angina pectoris score, total and single (frequency/attack times, duration, pain degree, dose of nitroglycerin), same clinical trial
Type: in vivo, human
Design: total angina pectoris score, Md / total angina pectoris score, Mean: scale not given here
Conditions: for attack times score, patients (%): Baseline; for distribution of total angina pectoris score: Medium, number of patients / distribution of total angina pectoris score: Medium, percentage of patients / distribution of total angina pectoris score: Mild, number of patients / distribution of total angina pectoris score: Mild, percentage of patients / distribution of total angina pectoris score: Severe, number of patients / distribution of total angina pectoris score: Severe, percentage of patients / patients with dose of nitroglycerin score 0 (%) / patients with dose of nitroglycerin score 1 (%) / patients with dose of nitroglycerin score 2 (%) / patients with dose of nitroglycerin score 4 (%) / patients with dose of nitroglycerin score 6 (%) / total angina pectoris score, Md / total angina pectoris score, Mean / change of total angina pectoris score, Md / change of total angina pectoris score, Mean / patients with change of dose of nitroglycerin score 0 (%) / patients with change of dose of nitroglycerin score 1 (%) / patients with change of dose of nitroglycerin score 2 (%) / patients with change of dose of nitroglycerin score 4 (%) / patients with change of dose of nitroglycerin score 6 (%) / patients with change of dose of nitroglycerin score −1 (%) / patients with change of dose of nitroglycerin score −2 (%) / patients with change of dose of nitroglycerin score −3 (%) / patients with change of dose of nitroglycerin score −4 (%) / patients with change of dose of nitroglycerin score −6 (%) / patients with change of dose of nitroglycerin score −5 (%): FAS
From the text: In order to better understand the present invention, a multi-center, randomized, double-blind, double-dummy and positive drug controlled trial had been conducted. 3508 patients who were in accordance with the diagnostic standards of AMI for 28 days to 2 years and differentiated as Qi deficiency and blood stagnation syndrome by TCM were studied. 0.5 g Chinese medicine composition prepared by the method of EXAMPLE 1 (Coded as QSYQ) was administrated half an hour after meal, 3 times per day. Aspirine was used as a positive drug. The patients were treated for 1 year and observed for 6 months.
They included the overall survival time, angina pectoris score, TCM symptom score and life quality score, where angina pectoris score, TCM symptom score and life quality score were evaluated at randomization, in 1st, 3rd, 6th, 9th, 12th month after treatment and 18th month after follow-up.
(§1) Total angina pectoris score was described on every observation period and the change of observation in comparison with baseline. T-test or Wilcoxon rank sum test were used for inter-group comparison. Grade of total score was evaluated on every observation and Wilcoxon rank sum test was used for inter-group comparison. T-test and Pairing signed rank sum test were used for analyzing the change of total score on every observation between groups in comparison with the baseline.
(§2) Single angina pectoris score was depicted on every observation time-point and the change of observation in comparison with baseline. Wilcoxon rank sum test was used for inter-group comparison. Pairing signed rank sum test was used for analyzing the change of total score on every observation between groups in comparison with the baseline.
as §1, with “comparison with the baseline. T-test” for “comparison with baseline. T-test”
as §2, with “described” for “depicted”

[1] = 1 month after treatment-baseline
[2] = 3 months after treatment-baseline
[3] = 6 months after treatment-baseline
[4] = 9 months after treatment-baseline

## CC(=O)Oc1ccccc1C(=O)O [Control group, aspirine]
Score 1, PP
  attack times score, patients (%): (8.95%)
Score 2, FAS
  attack times score, patients (%): (53.24%)
Score 2, PP
  attack times score, patients (%): (53.51%)
Score 4, FAS
  attack times score, patients (%): (9.12%)
Score 4, PP
  attack times score, patients (%): (9.55%)
Score 6, FAS
  attack times score, patients (%): (1.03%)
Score 6, PP
  attack times score, patients (%): (1.00%)
1 month after treatment
  distribution of total angina pectoris score: Medium, number of patients: 484
  distribution of total angina pectoris score: Medium, percentage of patients: (28.24%)
  distribution of total angina pectoris score: Mild, number of patients: 1203
  distribution of total angina pectoris score: Mild, percentage of patients: (70.19%)
  distribution of total angina pectoris score: Severe, number of patients: 27
  distribution of total angina pectoris score: Severe, percentage of patients: (1.58%)
  patients with dose of nitroglycerin score 0 (%): (59.78%)
  patients with dose of nitroglycerin score 1 (%): (0.29%)
  patients with dose of nitroglycerin score 2 (%): (28.94%)
  patients with dose of nitroglycerin score 4 (%): (7.65%)
  patients with dose of nitroglycerin score 6 (%): (3.34%)
  total angina pectoris score, Md: 6.00
  total angina pectoris score, Mean: 5.92
[1]
  change of total angina pectoris score, Md: 0.00
  change of total angina pectoris score, Mean: −1.19
  patients with change of dose of nitroglycerin score 0 (%): (80.53%)
  patients with change of dose of nitroglycerin score 1 (%): (0.17%)
  patients with change of dose of nitroglycerin score 2 (%): (3.92%)
  patients with change of dose of nitroglycerin score 4 (%): (1.04%)
  patients with change of dose of nitroglycerin score 6 (%): (0.23%)
  patients with change of dose of nitroglycerin score −1 (%): (0.00%)
  patients with change of dose of nitroglycerin score −2 (%): (11.41%)
  patients with change of dose of nitroglycerin score −3 (%): (0.06%)
  patients with change of dose of nitroglycerin score −4 (%): (2.13%)
  patients with change of dose of nitroglycerin score −6 (%): (0.52%)
3 months after treatment
  distribution of total angina pectoris score: Medium, number of patients: 397
  distribution of total angina pectoris score: Medium, percentage of patients: (23.97%)
  distribution of total angina pectoris score: Mild, number of patients: 1241
  distribution of total angina pectoris score: Mild, percentage of patients: (74.94%)
  distribution of total angina pectoris score: Severe, number of patients: 18
  distribution of total angina pectoris score: Severe, percentage of patients: (1.09%)
  patients with dose of nitroglycerin score 0 (%): (61.98%)
  patients with dose of nitroglycerin score 1 (%): (0.63%)
  patients with dose of nitroglycerin score 2 (%): (29.58%)
  patients with dose of nitroglycerin score 4 (%): (5.23%)
  patients with dose of nitroglycerin score 6 (%): (2.58%)
  total angina pectoris score, Md: 6.00
  total angina pectoris score, Mean: 5.38
[2]
  change of total angina pectoris score, Md: 0.00
  change of total angina pectoris score, Mean: −1.73
  patients with change of dose of nitroglycerin score 0 (%): (75.23%)
  patients with change of dose of nitroglycerin score 1 (%): (0.17%)
  patients with change of dose of nitroglycerin score 2 (%): (4.44%)
  patients with change of dose of nitroglycerin score 4 (%): (0.69%)
  patients with change of dose of nitroglycerin score 6 (%): (0.29%)
  patients with change of dose of nitroglycerin score −1 (%): (0.29%)
  patients with change of dose of nitroglycerin score −2 (%): (15.15%)
  patients with change of dose of nitroglycerin score −4 (%): (2.94%)
  patients with change of dose of nitroglycerin score −5 (%): (0.12%)
  patients with change of dose of nitroglycerin score −6 (%): (0.69%)
6 months after treatment
  distribution of total angina pectoris score: Medium, number of patients: 309
  distribution of total angina pectoris score: Medium, percentage of patients: (19.43%)
  distribution of total angina pectoris score: Mild, number of patients: 1273
  distribution of total angina pectoris score: Mild, percentage of patients: (80.06%)
  distribution of total angina pectoris score: Severe, number of patients: 8
  distribution of total angina pectoris score: Severe, percentage of patients: (0.50%)
  patients with dose of nitroglycerin score 0 (%): (65.38%)
  patients with dose of nitroglycerin score 1 (%): (0.86%)
  patients with dose of nitroglycerin score 2 (%): (28.24%)
  patients with dose of nitroglycerin score 4 (%): (3.62%)
  patients with dose of nitroglycerin score 6 (%): (1.89%)
  total angina pectoris score, Md: 5.00
  total angina pectoris score, Mean: 4.78
[3]
  change of total angina pectoris score, Md: 0.00
  change of total angina pectoris score, Mean: −2.34
  patients with change of dose of nitroglycerin score 0 (%): (70.05%)
  patients with change of dose of nitroglycerin score 1 (%): (0.40%)
  patients with change of dose of nitroglycerin score 2 (%): (4.84%)
  patients with change of dose of nitroglycerin score 4 (%): (0.40%)
  patients with change of dose of nitroglycerin score 6 (%): (0.35%)
  patients with change of dose of nitroglycerin score −1 (%): (0.23%)
  patients with change of dose of nitroglycerin score −2 (%): (18.49%)
  patients with change of dose of nitroglycerin score −3 (%): (0.00%)
  patients with change of dose of nitroglycerin score −4 (%): (4.03%)
  patients with change of dose of nitroglycerin score −5 (%): (0.17%)
  patients with change of dose of nitroglycerin score −6 (%): (1.04%)
9 months after treatment
  distribution of total angina pectoris score: Medium, number of patients: 244
  distribution of total angina pectoris score: Medium, percentage of patients: (15.97%)
  distribution of total angina pectoris score: Mild, number of patients: 1280
  distribution of total angina pectoris score: Mild, percentage of patients: (83.77%)
  distribution of total angina pectoris score: Severe, number of patients: 4
  distribution of total angina pectoris score: Severe, percentage of patients: (0.26%)
  patients with dose of nitroglycerin score 0 (%): (67.11%)
  patients with dose of nitroglycerin score 1 (%): (1.03%)
  patients with dose of nitroglycerin score 2 (%): (27.73%)
  patients with dose of nitroglycerin score 4 (%): (2.41%)
  patients with dose of nitroglycerin score 6 (%): (1.72%)
  total angina pectoris score, Md: 5.00
  total angina pectoris score, Mean: 4.39
[4]
  change of total angina pectoris score, Md: −1.00
  change of total angina pectoris score, Mean: −2.72
  patients with change of dose of nitroglycerin score 0 (%): (67.45%)
  patients with change of dose of nitroglycerin score 1 (%): (0.35%)
  patients with change of dose of nitroglycerin score 2 (%): (4.84%)
  patients with change of dose of nitroglycerin score 4 (%): (0.46%)
  patients with change of dose of nitroglycerin score 6 (%): (0.35%)
  patients with change of dose of nitroglycerin score −1 (%): (0.46%)
  patients with change of dose of nitroglycerin score −2 (%): (20.16%)
  patients with change of dose of nitroglycerin score −3 (%): (0.12%)
  patients with change of dose of nitroglycerin score −4 (%): (4.26%)
  patients with change of dose of nitroglycerin score −5 (%): (0.17%)
  patients with change of dose of nitroglycerin score −6 (%): (1.38%)
12 months after treatment
  distribution of total angina pectoris score: Medium, number of patients: 176
  distribution of total angina pectoris score: Medium, percentage of patients: (11.96%)
  distribution of total angina pectoris score: Mild, number of patients: 1294
  distribution of total angina pectoris score: Mild, percentage of patients: (87.91%)
  distribution of total angina pectoris score: Severe, number of patients: 2
  distribution of total angina pectoris score: Severe, percentage of patients: (0.14%)
  patients with dose of nitroglycerin score 0 (%): (71.58%)
  patients with dose of nitroglycerin score 1 (%): (1.09%)
  patients with dose of nitroglycerin score 2 (%): (23.59%)
  patients with dose of nitroglycerin score 4 (%): (2.07%)
  patients with dose of nitroglycerin score 6 (%): (1.66%)
  total angina pectoris score, Md: 0.00
  total angina pectoris score, Mean: 3.83
